# System: vaccinia virus
# Experiment: microbe, parasite or virus in culture
# Assay type: cell-based
# Details: Orthopoxvirus vaccinia, BSC-40, in Chlorocebus sabaeus, read-out: EC50 (inhibition of viral replication)
row,SMILES,EC50
1,"C[C@@H](NC(=O)c1cc(Cl)cc(-c2c[nH]c(-c3cc4ccccc4cn3)n2)c1)c1ccc(F)cc1 [Example 5, N-[(1R)-1-(4-fluorophenyl)ethyl]-3-(2-isoquinoline-3-yl-1H-imidazol-4-yl)-5-chlorobenzamide]",≤ 500 nM
2,"C[C@@H](NC(=O)c1cc(NC(=O)C(C)(C)F)cc(-c2c[nH]c(-c3cc4ccccc4cn3)n2)c1)c1ccc(F)cc1 [Example 17, N-[(1R)-1-(4-fluorophenyl)ethyl]-3-(2-isoquinoline-3-yl-1H-imidazol-4-yl)-5-(2-fluoroisobutyrylamino)benzamide]",≤ 500 nM
3,C[C@@H](NC(=O)c1cc(NC(=O)C(C)(C)C)cc(-c2c[nH]c(-c3cc4ccccc4cn3)n2)c1)c1ccc(F)cc1 [Example 15],≤ 500 nM
4,"C[C@@H](NC(=O)c1cccc(-c2c[nH]c(-c3cc4ccccc4cn3)n2)c1)c1ccc(F)cc1 [Example 6, N-[(1R)-1-(4-fluorophenyl)ethyl]-3-(2-isoquinoline-3-yl-1H-imidazol-4-yl)benzamide]",≤ 500 nM
5,CC(C)C(=O)Nc1cc(C(=O)N[C@H](C)c2ccc(F)cc2)cc(-c2c[nH]c(-c3cc4ccccc4cn3)n2)c1 [Example 1],≤ 500 nM
